Measurements: PubChem BioAssay (NCI)
Values joined by “and” are separate entries in the source; they are usually repeats but may differ in a detail not shown here. Equal values may be shown once.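 Cultured in 96-well plates, cells were exposed to test compound for 48 hours across five concentrations. GI50 is the concentration that inhibits growth by half. TGI denotes the concentration required for complete inhibition of growth.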

What was measured:
Assay in all cases: DTP human tumour cell line panel, 48 h
A498 renal = test system: A498 renal
EKVX NSCLC = test system: EKVX NSCLC
HCT-15 colon = test system: HCT-15 colon
M14 melanoma = test system: M14 melanoma
MDA-MB-231 breast = test system: MDA-MB-231 breast
NCI-H226 lung = test system: NCI-H226 lung
NCI-H460 lung = test system: NCI-H460 lung
NCI/ADR-RES ovarian = test system: NCI/ADR-RES ovarian
SR leukemia = test system: SR leukemia
T-47D breast = test system: T-47D breast

With `NC(CC1=CS(=O)(=O)c2ccc(Cl)cc21)C(=O)O` (stereo unspecified) the TGI (A498 renal) was > 100 µM, the TGI (EKVX NSCLC) was > 100 µM and the TGI (HCT-15 colon) was > 100 µM. The TGI (M14 melanoma) was > 100 µM, the TGI (MDA-MB-231 breast) was > 100 µM and the TGI (NCI-H226 lung) was > 100 µM. For the same compound, the TGI (NCI-H460 lung) was > 100 µM, the TGI (NCI/ADR-RES ovarian) was > 100 µM and the TGI (SR leukemia) was > 100 µM. For the same compound, the TGI (T-47D breast) was > 100 µM.
For `NCCCN1CCN(CCCNc2ccc3nnn4c5ccccc5c(=O)c2c34)CC1`, the TGI (A498 renal) was 40.6 µM, the TGI (EKVX NSCLC) was 41.1 µM and the TGI (HCT-15 colon) was > 100 µM. It also gave a TGI (M14 melanoma) of 38.4 µM, a TGI (MDA-MB-231 breast) of 29.1 µM and a TGI (NCI-H460 lung) of 58.1 µM. For the same compound, the TGI (NCI/ADR-RES ovarian) was > 100 µM, the TGI (SR leukemia) was > 100 µM and the TGI (T-47D breast) was > 100 µM.
With `N/C(=N\S(=O)(=O)c1c(C(F)(F)F)cccc1C(F)(F)F)Nc1ccc(Cl)cc1` the TGI (A498 renal) was 50.6 µM, the TGI (EKVX NSCLC) was 36.2 µM and the TGI (HCT-15 colon) was > 100 µM. For the same compound, the TGI (M14 melanoma) was > 100 µM, the TGI (MDA-MB-231 breast) was 48.6 µM and the TGI (NCI-H226 lung) was > 100 µM. The TGI (NCI-H460 lung) was > 100 µM, the TGI (NCI/ADR-RES ovarian) was 50.1 µM and the TGI (SR leukemia) was > 100 µM. The TGI (T-47D breast) was > 100 µM.
`O=C(O)c1cc(-c2ccc3c(O)c(O)ccc3c2)ccc1O` was tested, and the TGI (A498 renal) was > 75 µM, the TGI (EKVX NSCLC) was > 75 µM and the TGI (HCT-15 colon) was > 75 µM. The TGI (M14 melanoma) was 70.6 µM, the TGI (MDA-MB-231 breast) was 54.1 µM and the TGI (NCI-H226 lung) was > 75 µM. For the same compound, the TGI (NCI-H460 lung) was > 7.5 µM, the TGI (NCI/ADR-RES ovarian) was > 75 µM and the TGI (SR leukemia) was 42 µM. The TGI (T-47D breast) was > 75 µM.
With `CC(=O)c1cccn1/C=C(\OC(=O)OC(C)(C)C)c1ccc[nH]1` the TGI (A498 renal) was > 100 µM, the TGI (EKVX NSCLC) was > 100 µM and the TGI (HCT-15 colon) was > 100 µM. For the same compound, the TGI (M14 melanoma) was > 100 µM, the TGI (MDA-MB-231 breast) was > 100 µM and the TGI (NCI-H226 lung) was > 100 µM. For the same compound, the TGI (NCI-H460 lung) was > 100 µM, the TGI (NCI/ADR-RES ovarian) was > 100 µM and the TGI (SR leukemia) was > 100 µM. The TGI (T-47D breast) was > 100 µM.
For `C=C1c2cc3c(cc2CC12Cc1cc4c(cc1C2=O)CCC4)CCC3` (stereo unspecified), the TGI (A498 renal) was > 100 µM, the TGI (EKVX NSCLC) was > 100 µM and the TGI (HCT-15 colon) was > 100 µM. For the same compound, the TGI (M14 melanoma) was > 100 µM, the TGI (MDA-MB-231 breast) was > 100 µM and the TGI (NCI-H460 lung) was > 100 µM. The TGI (NCI/ADR-RES ovarian) was > 100 µM, the TGI (SR leukemia) was > 100 µM and the TGI (T-47D breast) was > 100 µM.
In the case of `Cc1cc(-c2nc3ccccc3s2)ccc1NC(=O)[C@@H](N)CCCCN`, the TGI (A498 renal) is reported as 19.2 µM, the TGI (EKVX NSCLC) is reported as 25.1 µM and the TGI (HCT-15 colon) is reported as 24.3 µM. For the same compound, the TGI (M14 melanoma) was 7.88 µM, the TGI (MDA-MB-231 breast) was 25.3 µM and the TGI (NCI-H226 lung) was 17.8 µM. For the same compound, the TGI (NCI-H460 lung) was 20.8 µM, the TGI (NCI/ADR-RES ovarian) was 36.5 µM and the TGI (SR leukemia) was > 54.7 µM. It also gave a TGI (T-47D breast) of 1.14 µM.
`C/C1=C\CC[C@@]2(C)O[C@@H]2C[C@@H](C2(C)CO2)CC/C(C)=C/CC1` (stereo partly specified) was tested, and the TGI (A498 renal) was > 100 µM, the TGI (EKVX NSCLC) was 36.1 µM and the TGI (HCT-15 colon) was 25 µM. For the same compound, the TGI (M14 melanoma) was 54.7 µM, the TGI (MDA-MB-231 breast) was 47.3 µM and the TGI (NCI-H226 lung) was 30.3 µM. For the same compound, the TGI (NCI-H460 lung) was 37.8 µM, the TGI (NCI/ADR-RES ovarian) was 46.8 µM and the TGI (SR leukemia) was > 100 µM. It also gave a TGI (T-47D breast) of 78.3 µM.
`COc1cc(-c2cc(=O)c3cc4c(=O)cc(-c5cc(OC)c(OC)c(OC)c5)oc4cc3o2)cc(OC)c1OC` was tested, and the TGI (A498 renal) was 65.6 µM, the TGI (EKVX NSCLC) was > 100 µM and the TGI (HCT-15 colon) was > 100 µM. For the same compound, the TGI (M14 melanoma) was > 100 µM, the TGI (MDA-MB-231 breast) was > 64.5 µM and the TGI (NCI-H226 lung) was 46.2 µM. The TGI (NCI-H460 lung) was > 100 µM, the TGI (NCI/ADR-RES ovarian) was > 100 µM and the TGI (SR leukemia) was > 100 µM. The TGI (T-47D breast) was > 100 µM.
In the case of `COC(=O)c1c2c(cc3c1CCC3)CCC2`, the TGI (A498 renal) is reported as 90.3 µM, the TGI (EKVX NSCLC) is reported as > 100 µM and the TGI (HCT-15 colon) is reported as > 100 µM. The TGI (M14 melanoma) was > 100 µM, the TGI (MDA-MB-231 breast) was > 100 µM and the TGI (NCI-H226 lung) was > 100 µM. The TGI (NCI-H460 lung) was > 100 µM, the TGI (NCI/ADR-RES ovarian) was > 100 µM and the TGI (SR leukemia) was 44.8 µM. The TGI (T-47D breast) was 43.9 µM.
With `Cc1cn(-c2cc(C(=O)Nc3cccc(-n4ccc5c(NC(=O)c6ccccc6)nccc54)c3)cc(C(F)(F)F)c2)cn1` the GI50 (A498 renal) was 0.223 µM, the TGI (A498 renal) was 1.71 µM and the GI50 (EKVX NSCLC) was 2.32 µM. For the same compound, the TGI (EKVX NSCLC) was 30.2 µM, the GI50 (HCT-15 colon) was 0.29 µM and the TGI (HCT-15 colon) was 4.71 µM. For the same compound, the GI50 (M14 melanoma) was 0.452 µM, the TGI (M14 melanoma) was 3.29 µM and the GI50 (MDA-MB-231 breast) was 0.68 µM. It also gave a TGI (MDA-MB-231 breast) of 3.62 µM, a GI50 (NCI-H226 lung) of 0.524 µM and a TGI (NCI-H226 lung) of 17.1 µM. For the same compound, the GI50 (NCI-H460 lung) was 0.29 µM, the TGI (NCI-H460 lung) was 1.2 µM and the GI50 (NCI/ADR-RES ovarian) was 1.13 µM. For the same compound, the TGI (NCI/ADR-RES ovarian) was > 33.4 µM, the GI50 (SR leukemia) was 0.14 µM and the GI50 (T-47D breast) was 1.9 µM. It also gave a TGI (T-47D breast) of 24.2 µM.
With `COc1nc2ncc([C@@H](OC(C)=O)[C@@H](COC(C)=O)OC(C)=O)nc2c(=O)[nH]1` the TGI (A498 renal) was > 100 µM, the TGI (EKVX NSCLC) was > 100 µM and the TGI (HCT-15 colon) was > 100 µM. The TGI (M14 melanoma) was > 100 µM, the TGI (MDA-MB-231 breast) was > 100 µM and the TGI (NCI-H226 lung) was > 100 µM. For the same compound, the TGI (NCI-H460 lung) was > 100 µM, the TGI (NCI/ADR-RES ovarian) was > 100 µM and the GI50 (SR leukemia) was > 100 µM and 39.4 µM. For the same compound, the TGI (SR leukemia) was > 100 µM and the TGI (T-47D breast) was > 100 µM.
For `C[C@@H](Cl)[C@H]1CCCN(Cc2ccc(Br)cc2)C1`, the TGI (A498 renal) was > 12.5 µM, the TGI (EKVX NSCLC) was > 12.5 µM and the TGI (HCT-15 colon) was > 12.5 µM. The TGI (M14 melanoma) was > 12.5 µM, the TGI (MDA-MB-231 breast) was > 12.5 µM and the TGI (NCI-H226 lung) was > 12.5 µM. For the same compound, the TGI (NCI-H460 lung) was > 12.5 µM, the TGI (NCI/ADR-RES ovarian) was > 12.5 µM and the TGI (SR leukemia) was > 12.5 µM. For the same compound, the TGI (T-47D breast) was > 12.5 µM.
`CSc1c(C#N)c(N)n(-c2ccc(C)cc2)c(=O)c1C#N` was tested, and the TGI (A498 renal) was > 100 µM, the TGI (EKVX NSCLC) was > 100 µM and the TGI (HCT-15 colon) was > 100 µM. For the same compound, the TGI (M14 melanoma) was > 100 µM, the TGI (MDA-MB-231 breast) was > 100 µM and the TGI (NCI-H226 lung) was > 100 µM. For the same compound, the TGI (NCI-H460 lung) was > 100 µM, the TGI (NCI/ADR-RES ovarian) was > 100 µM and the TGI (SR leukemia) was > 100 µM. The TGI (T-47D breast) was > 100 µM.
With `O=c1[nH]cnc2c1ncn2[C@@H]1C[C@@H]1CO` the TGI (EKVX NSCLC) was > 100 µM, the TGI (HCT-15 colon) was > 100 µM and the TGI (M14 melanoma) was > 100 µM. The TGI (MDA-MB-231 breast) was > 100 µM, the TGI (NCI-H226 lung) was > 100 µM and the TGI (NCI-H460 lung) was > 100 µM. For the same compound, the TGI (NCI/ADR-RES ovarian) was > 100 µM, the TGI (SR leukemia) was > 100 µM and the TGI (T-47D breast) was > 100 µM.
In the case of `Cc1ccc(CC[P+](=O)CCc2ccc(C)nc2)cn1`, the TGI (EKVX NSCLC) is reported as > 100 µM, the TGI (HCT-15 colon) is reported as > 100 µM and the TGI (M14 melanoma) is reported as > 100 µM. For the same compound, the TGI (MDA-MB-231 breast) was > 100 µM, the TGI (NCI-H226 lung) was > 100 µM and the TGI (NCI-H460 lung) was > 100 µM. For the same compound, the TGI (NCI/ADR-RES ovarian) was > 100 µM, the TGI (SR leukemia) was > 100 µM and the TGI (T-47D breast) was > 100 µM.
